# In ChEMBL document CHEMBL4725301, “Discovery of a novel 9-position modified second-generation anti-HCV candidate via bioconversion and semi-synthesis of FR901459” (Bioorg Med Chem Lett, 2020):
# Columns and labels:
# [1] = Oral bioavailability in rat; type: ADME, organism-based; details: in vivo
# [2] = Aqueous solubility of the compound in JP2 fluid at pH 6.8 by disintegration test; type: physicochemical
# [3] = AUC (0 to 24 hrs) in po dosed rat; type: ADME, organism-based; design: time < 24 hr, route oral; details: in vivo
# [4] = Inhibition of cyclophilin (unknown origin) assessed as inhibition of HCV FLR1 subgenomic viral replicon replication in presence of 10% FBS by luciferase reporter gene assay; design: species or system Homo sapiens
# [5] = Inhibition of cyclophilin (unknown origin) assessed as inhibition of HCV FLR1 subgenomic viral replicon replication in presence of 50% human serum albumin by luciferase reporter gene assay
# [6] = Inhibition of cyclophilin (unknown origin) assessed as inhibition of HCV #50-1 subgenomic viral replicon replication in presence of 5% FBS; design: species or system Homo sapiens
# Splenocyte = assay: Immunosuppressive activity in mouse splenocytes assessed as inhibition of concanavalinA-induced cell proliferation; type: cell-based
# [7] = Inhibition of cyclophilin (unknown origin) assessed as inhibition of HCV #50-1 subgenomic viral replicon replication in presence of 50% human serum albumin
# Hepatitis C virus = assay: Antiviral activity against Hepatitis C virus genotype 1a infected in humanized liver SCID-Alb/uPA chimeric mouse assessed as log reduction in serum HCV RNA level at 15 mg/kg, po administered via gavage bid for 14 days cotreated with interferon-alfa2b at 400 U/g, sc administered qd measured for 7 days follow-up period without compound administration post-last dose; type: functional, Hepacivirus hominis, subtype 1a; details: time 14 day
Structure (SMILES),bioavailability [1],solubility [2],AUC(0-t) at 24 h [3],EC50 [4],EC50 [5],EC50 [6],EC50 [7],IC50 (Splenocyte),log(activity) (Hepatitis C virus)
C/C=C/C[C@@H](C)[C@@H](O)[C@H]1C(=O)N[C@@H]([C@@H](C)O)C(=O)N(C)[C@H](C)C(=O)N(C)[C@@H]([C@@H](C)OC)C(=O)N[C@@H](CC(C)C)C(=O)N(C)[C@@H](CC(C)C)C(=O)N[C@@H](C)C(=O)N[C@H](C)C(=O)N[C@@H](CC(C)C)C(=O)N[C@@H](CC(C)C)C(=O)N(C)[C@@H](C(C)C)C(=O)N1C,36%,117 µg/mL,16100 ng·h/mL,–,–,–,–,–,–
C/C=C/C[C@@H](C)[C@@H](O)[C@H]1C(=O)N[C@@H]([C@@H](C)O)C(=O)N(C)[C@H](COC)C(=O)N(C)[C@@H](CC(C)C)C(=O)N[C@@H](CC(C)C)C(=O)N(C)[C@@H](CC(C)C)C(=O)N[C@@H](C)C(=O)N[C@H](C)C(=O)N[C@@H](C[C@H](C)CN2CCOCC2)C(=O)N[C@@H](CC(C)C)C(=O)N(C)[C@@H](C(C)C)C(=O)N1C,–,–,–,0.11 µg/mL,0.25 µg/mL,–,–,–,–
C/C=C/C[C@@H](C)[C@@H](O)[C@H]1C(=O)N[C@@H]([C@@H](C)O)C(=O)N(C)[C@H](COC)C(=O)N(C)[C@@H](CC(C)C)C(=O)N[C@@H](CC(C)C)C(=O)N(C)[C@@H](CC(C)C)C(=O)N[C@@H](C)C(=O)N[C@H](C)C(=O)N[C@@H](C[C@H](C)COC(=O)N2CCO[C@@H](COC)C2)C(=O)N[C@@H](CC(C)C)C(=O)N(C)[C@@H](C(C)C)C(=O)N1C,12.9%,73 µg/mL,12400 ng·h/mL,0.058 µg/mL,0.064 µg/mL,–,–,0.88 µg/mL,–
C/C=C/C[C@@H](C)[C@@H](O)[C@H]1C(=O)N[C@@H]([C@@H](C)O)C(=O)N(C)[C@H](COC)C(=O)N(C)[C@@H](CC(C)C)C(=O)N[C@@H](CC(C)C)C(=O)N(C)[C@@H](CC(C)C)C(=O)N[C@@H](C)C(=O)N[C@H](C)C(=O)N[C@@H](C[C@H](C)COC(=O)N(C)CCOC)C(=O)N[C@@H](CC(C)C)C(=O)N(C)[C@@H](C(C)C)C(=O)N1C,–,–,–,0.06 µg/mL,0.097 µg/mL,–,–,0.85 µg/mL,–
C/C=C/C[C@@H](C)[C@@H](O)[C@H]1C(=O)N[C@@H]([C@@H](C)O)C(=O)N(C)[C@H](COC)C(=O)N(C)[C@@H](CC(C)C)C(=O)N[C@@H](CC(C)C)C(=O)N(C)[C@@H](CC(C)C)C(=O)N[C@@H](C)C(=O)N[C@H](C)C(=O)N[C@@H](C[C@H](C)CN2CCOC(COC)(COC)C2)C(=O)N[C@@H](CC(C)C)C(=O)N(C)[C@@H](C(C)C)C(=O)N1C,28.3%,54 µg/mL,16900 ng·h/mL,0.063 µg/mL,0.1 µg/mL,–,–,1.7 µg/mL,2

# More lines, main results first:
bioavailability [1],solubility [2],AUC(0-t) at 24 h [3],EC50 [4],EC50 [5],EC50 [6],EC50 [7],Structure (SMILES),IC50 (Splenocyte),log(activity) (Hepatitis C virus)
–,–,–,–,–,0.22 µg/mL,–,C/C=C/C[C@@H](C)[C@@H](O)[C@H]1C(=O)N[C@@H]([C@@H](C)O)C(=O)N(C)CC(=O)N(C)[C@@H](CC(C)C)C(=O)N[C@@H](CC(C)C)C(=O)N(C)[C@@H](CC(C)C)C(=O)N[C@@H](C)C(=O)N[C@H](C)C(=O)N[C@@H](C[C@H](C)CN2CCOCC2)C(=O)N[C@@H](CC(C)C)C(=O)N(C)[C@@H](C(C)C)C(=O)N1C,0.12 µg/mL,–
–,–,–,–,–,0.096 µg/mL,3.7 µg/mL,C/C=C/C[C@@H](C)[C@@H](O)[C@H]1C(=O)N[C@@H]([C@@H](C)O)C(=O)N(C)CC(=O)N(C)[C@@H](CC(C)C)C(=O)N[C@@H](CC(C)C)C(=O)N(C)[C@@H](CC(C)C)C(=O)N[C@@H](C)C(=O)N[C@H](C)C(=O)N[C@@H](CC(C)C)C(=O)N[C@@H](CC(C)C)C(=O)N(C)[C@@H](C(C)C)C(=O)N1C,0.026 µg/mL,–
–,–,–,–,–,0.097 µg/mL,0.55 µg/mL,C/C=C/C[C@@H](C)[C@@H](O)[C@H]1C(=O)N[C@@H]([C@@H](C)O)C(=O)N(C)CC(=O)N(C)[C@@H](CC(C)C)C(=O)N[C@@H](CC(C)C)C(=O)N(C)[C@@H](CC(C)C)C(=O)N[C@@H](C)C(=O)N[C@H](C)C(=O)N[C@@H](C[C@H](C)COC(=O)NCCOC)C(=O)N[C@@H](CC(C)C)C(=O)N(C)[C@@H](C(C)C)C(=O)N1C,0.75 µg/mL,–
–,–,–,–,–,0.16 µg/mL,0.22 µg/mL,C/C=C/C[C@@H](C)[C@@H](O)[C@H]1C(=O)N[C@@H]([C@@H](C)O)C(=O)N(C)CC(=O)N(C)[C@@H](CC(C)C)C(=O)N[C@@H](CC(C)C)C(=O)N(C)[C@@H](CC(C)C)C(=O)N[C@@H](C)C(=O)N[C@H](C)C(=O)N[C@@H](C[C@H](C)COC(=O)N2CCN(C)CC2)C(=O)N[C@@H](CC(C)C)C(=O)N(C)[C@@H](C(C)C)C(=O)N1C,1.9 µg/mL,–
–,–,–,–,–,0.85 µg/mL,2.4 µg/mL,C/C=C/C[C@@H](C)[C@@H](O)[C@H]1C(=O)N[C@@H]([C@@H](C)O)C(=O)N(C)CC(=O)N(C)[C@@H](CC(C)C)C(=O)N[C@@H](CC(C)C)C(=O)N(C)[C@@H](CC(C)C)C(=O)N[C@@H](C)C(=O)N[C@H](C)C(=O)N[C@@H](C[C@H](C)CO)C(=O)N[C@@H](CC(C)C)C(=O)N(C)[C@@H](C(C)C)C(=O)N1C,0.28 µg/mL,–
–,–,–,–,–,0.099 µg/mL,0.56 µg/mL,C/C=C/C[C@@H](C)[C@@H](O)[C@H]1C(=O)N[C@@H]([C@@H](C)O)C(=O)N(C)CC(=O)N(C)[C@@H](CC(C)C)C(=O)N[C@@H](CC(C)C)C(=O)N(C)[C@@H](CC(C)C)C(=O)N[C@@H](C)C(=O)N[C@H](C)C(=O)N[C@@H](C[C@H](C)COCC(=O)N2CCOCC2)C(=O)N[C@@H](CC(C)C)C(=O)N(C)[C@@H](C(C)C)C(=O)N1C,0.92 µg/mL,–
